Test results published in PubChem BioAssay AID1963973 (Molecular Pharmacology Branch, DTP, NCI, 2024).

Test system: 883617-216-R-J1-PDC tumor spheroids, viability
Test: Anticancer human tumor 883617-216-R-J1-PDC patient-derived bladder carcinoma cell line growth inhibition [PI3K]
Settings: spheroids with HUVEC and MSC; for viability, T/C: stronger effect = lower value; active = viability on the fitted dose curve at most 10% of control; inactive = the rest
How it was run: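 Tumor cells grown as multi-cell spheroids with HUVEC endothelial cells and MSC fibroblast-like stroma were treated with targeted agents combined with inavolisib, alpelisib, duvelisib or copanlisib. Doses fell in half-log steps from near clinical Cmax, else from 10 microM. Viability was measured.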

[1] = curve of first compound, second compound 0.00316 µM
[2] = curve of first compound, second compound 0.01 µM
[3] = curve of first compound, second compound 0.0316 µM
[4] = curve of first compound, second compound 0.1 µM
[5] = curve of first compound, second compound 0.316 µM
[6] = curve of first compound, second compound 1 µM
[7] = second compound 0.00316 µM, first compound 0.0316 µM
[8] = second compound 0.00316 µM, first compound 0.1 µM
[9] = second compound 0.01 µM, first compound 0.0316 µM
[10] = second compound 0.01 µM, first compound 0.1 µM
[11] = second compound 0.0316 µM, first compound 0.0316 µM
[12] = second compound 0.0316 µM, first compound 0.1 µM
[13] = second compound 0.1 µM, first compound 0.0316 µM
[14] = second compound 0.1 µM, first compound 0.1 µM
[15] = second compound 0.316 µM, first compound 0.0316 µM
[16] = second compound 0.316 µM, first compound 0.1 µM
[17] = second compound 1 µM, first compound 0.0316 µM
[18] = second compound 1 µM, first compound 0.1 µM
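Note: spheroids exposed to agents for 7 days before the viability read.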

C[C@@H](NC(=O)c1ncnc(N)c1Cl)c1ncc(C(=O)Nc2cc(C(F)(F)F)c(Cl)cn2)s1 + COc1c(OCCCN2CCOCC2)ccc2c3n(c(=NC(=O)c4cnc(N)nc4)nc12)CCN3
< 31.6 nM: IC50 [3] | IC50 [4] | IC50 [5] | IC50 [6]
> 10000 nM: IC50 [1] | IC50 [2]
inactive: viability, T/C [7] 86.2% | viability, T/C [8] 83.1% | viability, T/C (second compound 0.00316 µM, first compound 0.316 µM) 86.1% | viability, T/C (second compound 0.00316 µM, first compound 1 µM) 96% | viability, T/C (second compound 0.00316 µM, first compound 3.16 µM) 70.9% | viability, T/C (second compound 0.00316 µM, first compound 10 µM) 59.9% | viability, T/C [9] 88.2% | viability, T/C [10] 71.5% | viability, T/C (second compound 0.01 µM, first compound 0.316 µM) 72.5% | viability, T/C (second compound 0.01 µM, first compound 1 µM) 87.5% | viability, T/C (second compound 0.01 µM, first compound 3.16 µM) 71.5% | viability, T/C (second compound 0.01 µM, first compound 10 µM) 56.6% | viability, T/C [11] 38.3% | viability, T/C [12] 41.2% | viability, T/C (second compound 0.0316 µM, first compound 0.316 µM) 42.1% | viability, T/C (second compound 0.0316 µM, first compound 1 µM) 50.4% | viability, T/C (second compound 0.0316 µM, first compound 3.16 µM) 40.8% | viability, T/C (second compound 0.0316 µM, first compound 10 µM) 30.9% | viability, T/C [13] 19% | viability, T/C [14] 20.6% | viability, T/C (second compound 0.1 µM, first compound 0.316 µM) 23.1% | viability, T/C (second compound 0.1 µM, first compound 1 µM) 22% | viability, T/C (second compound 0.1 µM, first compound 3.16 µM) 20.5% | viability, T/C (second compound 0.1 µM, first compound 10 µM) 14.5%
active: viability, T/C [15] 7.26% | viability, T/C [16] 7.17% | viability, T/C (second compound 0.316 µM, first compound 0.316 µM) 7.53% | viability, T/C (second compound 0.316 µM, first compound 1 µM) 7.56% | viability, T/C (second compound 0.316 µM, first compound 3.16 µM) 9.7% | viability, T/C (second compound 0.316 µM, first compound 10 µM) 5.01% | viability, T/C [17] 5.51% | viability, T/C [18] 5.13% | viability, T/C (second compound 1 µM, first compound 0.316 µM) 5.48% | viability, T/C (second compound 1 µM, first compound 1 µM) 5.61% | viability, T/C (second compound 1 µM, first compound 3.16 µM) 5.29% | viability, T/C (second compound 1 µM, first compound 10 µM) 2.13%

CNC(=O)c1ccc(N2C(=S)N(c3ccc(C#N)c(C(F)(F)F)c3)C(=O)C2(C)C)cc1F
> 10000 nM: IC50 (curve of compound)
inactive: viability, T/C (compound 0.0316 µM) 94.7% [middle of 4 runs] | viability, T/C (compound 0.316 µM) 99.7% [middle of 4 runs] | viability, T/C (compound 1 µM) 98.9% [middle of 4 runs] | viability, T/C (compound 3.16 µM) 101% [middle of 4 runs]

CC(=O)c1c(C)c2cnc(Nc3ccc(N4CCNCC4)cn3)nc2n(C2CCCC2)c1=O + COc1c(OCCCN2CCOCC2)ccc2c3n(c(=NC(=O)c4cnc(N)nc4)nc12)CCN3
< 0.316 nM: IC50 [3] | IC50 [4] | IC50 [5] | IC50 [6]
inactive: viability, T/C (second compound 0.00316 µM, first compound 0.000316 µM) 63.1% | viability, T/C (second compound 0.00316 µM, first compound 0.001 µM) 75.6% | viability, T/C (second compound 0.00316 µM, first compound 0.00316 µM) 92.5% | viability, T/C (second compound 0.00316 µM, first compound 0.01 µM) 72.2% | viability, T/C [7] 53.3% | viability, T/C [8] 39.7% | viability, T/C (second compound 0.01 µM, first compound 0.000316 µM) 71.5% | viability, T/C (second compound 0.01 µM, first compound 0.001 µM) 70.5% | viability, T/C (second compound 0.01 µM, first compound 0.00316 µM) 61.2% | viability, T/C (second compound 0.01 µM, first compound 0.01 µM) 71.6% | viability, T/C [9] 44.9% | viability, T/C [10] 26.4% | viability, T/C (second compound 0.0316 µM, first compound 0.000316 µM) 40.5% | viability, T/C (second compound 0.0316 µM, first compound 0.001 µM) 37.6% | viability, T/C (second compound 0.0316 µM, first compound 0.00316 µM) 30.2% | viability, T/C (second compound 0.0316 µM, first compound 0.01 µM) 27.5% | viability, T/C [11] 27.1% | viability, T/C [12] 21.6% | viability, T/C (second compound 0.1 µM, first compound 0.000316 µM) 16.1% | viability, T/C (second compound 0.1 µM, first compound 0.001 µM) 12.2% | viability, T/C (second compound 0.1 µM, first compound 0.00316 µM) 11.1% | viability, T/C (second compound 0.1 µM, first compound 0.01 µM) 13% | viability, T/C [13] 11.2% | viability, T/C [14] 11.8%
41.2 nM: IC50 [1]
active: viability, T/C (second compound 0.316 µM, first compound 0.000316 µM) 4.61% | viability, T/C (second compound 0.316 µM, first compound 0.001 µM) 5.01% | viability, T/C (second compound 0.316 µM, first compound 0.00316 µM) 4.74% | viability, T/C (second compound 0.316 µM, first compound 0.01 µM) 3.95% | viability, T/C [15] 4.31% | viability, T/C [16] 3.85% | viability, T/C (second compound 1 µM, first compound 0.000316 µM) 3.24% | viability, T/C (second compound 1 µM, first compound 0.001 µM) 2.85% | viability, T/C (second compound 1 µM, first compound 0.00316 µM) 2.99% | viability, T/C (second compound 1 µM, first compound 0.01 µM) 3.68% | viability, T/C [17] 2.94% | viability, T/C [18] 2.98%
24.7 nM: IC50 [2]

CC(Nc1ncnc2nc[nH]c12)c1cc2cccc(Cl)c2c(=O)n1-c1ccccc1 (stereo not given)
inactive: viability, T/C (compound 0.0316 µM) 98.3% [middle of 8 runs] | viability, T/C (compound 0.1 µM) 95.9% [middle of 8 runs] | viability, T/C (compound 0.316 µM) 94.8% [middle of 8 runs] | viability, T/C (compound 1 µM) 85.6% [middle of 8 runs] | viability, T/C (compound 3.16 µM) 66.2% [middle of 8 runs] | viability, T/C (compound 10 µM) 50.7% [middle of 8 runs]
